Results: ChEMBL document CHEMBL1136816, “Synthesis and evaluation of ether and halogenated derivatives of mannopeptimycin glycopeptide antibiotics” (2003)
≈ marks a conversion by molar mass, not a printed value.

Key:
Format in all cases: functional
Enterococcus sp. [1] = assay: In vitro minimum inhibitory concentration against Enterococcus species; 2-4
Streptococcus sp. [2] = assay: In vitro minimum inhibitory concentration against Streptococcus species; </=0.06-0.25
Staphylococcus aureus [3] = assay: In vitro minimum inhibitory concentration against Staphylococcus aureus; 2-4
Enterococcus sp. [4] = assay: In vitro minimum inhibitory concentration against Enterococcus species; 1-2
Staphylococcus aureus [5] = assay: In vitro minimum inhibitory concentration against Staphylococcus aureus; 0.25-1
Streptococcus sp. [6] = assay: In vitro minimum inhibitory concentration against Streptococcus species
Staphylococcus aureus [7] = assay: In vitro minimum inhibitory concentration against Staphylococcus aureus; 0.5-2
Enterococcus sp. [8] = assay: In vitro minimum inhibitory concentration against Enterococcus species; 1-4
Staphylococcus aureus [9] = assay: In vitro minimum inhibitory concentration against Staphylococcus aureus; 1-2
Enterococcus sp. [10] = assay: In vitro minimum inhibitory concentration against Enterococcus species 2-8
Streptococcus sp. [11] = assay: In vitro minimum inhibitory concentration against Streptococcus species; </=0.06-5
Staphylococcus aureus [12] = assay: In vitro minimum inhibitory concentration against Staphylococcus aureus; 1-8
Enterococcus sp. [13] = assay: In vitro minimum inhibitory concentration against Enterococcus species; 4-64
Streptococcus sp. [14] = assay: In vitro minimum inhibitory concentration against Streptococcus species; 0.5-4
Staphylococcus aureus [15] = assay: In vitro minimum inhibitory concentration against Staphylococcus aureus; 0.5->64
Streptococcus sp. [16] = assay: In vitro minimum inhibitory concentration against Streptococcus species; </=0.06-1
Enterococcus sp. [17] = assay: In vitro minimum inhibitory concentration against Enterococcus species; 0.25->64
Enterococcus sp. [18] = assay: In vitro minimum inhibitory concentration against Enterococcus species; 0.5->64
Streptococcus sp. [19] = assay: In vitro minimum inhibitory concentration against Streptococcus species; 0.12-0.5

COc1ccc(COC[C@H]2O[C@H](O[C@H]3[C@H](O)[C@H](O)[C@@H](Oc4ccc(C[C@H]5NC(=O)[C@H]([C@@H](C)c6ccccc6)NC(=O)CNC(=O)[C@H](CO)NC(=O)[C@@H]([C@@H](O)[C@@H]6CN=C(N)N6[C@H]6O[C@H](CO)[C@@H](O)[C@H](O)[C@@H]6O)NC(=O)[C@H]([C@@H](O)[C@@H]6CN=C(N)N6)NC5=O)cc4)O[C@@H]3CO)[C@@H](O)[C@@H](O)[C@@H]2O)cc1OCc1ccccc1
MIC (Enterococcus sp. [1]): 2 µg/mL (≈ 1.31 µM) | MIC (Streptococcus sp. [2]): ≤ 0.06 µg/mL | MIC (Staphylococcus aureus [3]): 2 µg/mL (≈ 1.31 µM)

COc1ccc2cc(CO[C@H]3[C@H](O)[C@H](O)[C@@H](O[C@H]4[C@H](O)[C@H](O)[C@@H](Oc5ccc(C[C@H]6NC(=O)[C@H]([C@@H](C)c7ccccc7)NC(=O)CNC(=O)[C@H](CO)NC(=O)[C@@H]([C@@H](O)[C@@H]7CN=C(N)N7[C@H]7O[C@H](CO)[C@@H](O)[C@H](O)[C@@H]7O)NC(=O)[C@H]([C@@H](O)[C@@H]7CN=C(N)N7)NC6=O)cc5)O[C@@H]4CO)O[C@@H]3CO)ccc2c1
MIC (Enterococcus sp. [4]): 1 µg/mL (≈ 0.682 µM) | MIC (Staphylococcus aureus [5]): 0.25 µg/mL (≈ 0.171 µM) | MIC (Streptococcus sp. [6]): ≤ 0.06 µg/mL

C[C@@H](c1ccccc1)[C@@H]1NC(=O)CNC(=O)[C@H](CO)NC(=O)[C@@H]([C@@H](O)[C@@H]2CN=C(N)N2[C@H]2O[C@H](CO)[C@@H](O)[C@H](O)[C@@H]2O)NC(=O)[C@H]([C@@H](O)[C@@H]2CN=C(N)N2)NC(=O)[C@@H](Cc2ccc(O[C@H]3O[C@H](CO)[C@@H](O[C@H]4O[C@H](CO)[C@@H](OCc5ccc(OCc6ccccc6)cc5)[C@H](O)[C@@H]4O)[C@H](O)[C@@H]3O)cc2)NC1=O
MIC (Enterococcus sp. [1]): 2 µg/mL (≈ 1.34 µM) | MIC (Streptococcus sp. [6]): ≤ 0.06 µg/mL | MIC (Staphylococcus aureus [7]): 0.5 µg/mL (≈ 0.335 µM)

C[C@@H](c1ccccc1)[C@@H]1NC(=O)CNC(=O)[C@H](CO)NC(=O)[C@@H]([C@@H](O)[C@@H]2CN=C(N)N2[C@H]2O[C@H](CO)[C@@H](O)[C@H](O)[C@@H]2O)NC(=O)[C@H]([C@@H](O)[C@@H]2CN=C(N)N2)NC(=O)[C@@H](Cc2ccc(O[C@H]3O[C@H](CO)[C@@H](O[C@H]4O[C@H](COCc5ccc(OCc6ccccc6)cc5)[C@@H](O)[C@H](O)[C@@H]4O)[C@H](O)[C@@H]3O)cc2)NC1=O
MIC (Streptococcus sp. [6]): ≤ 0.06 µg/mL | MIC (Enterococcus sp. [8]): 1 µg/mL (≈ 0.67 µM) | MIC (Staphylococcus aureus [9]): 1 µg/mL (≈ 0.67 µM)

COc1ccc2cc(COC[C@H]3O[C@H](O[C@H]4[C@H](O)[C@H](O)[C@@H](Oc5ccc(C[C@H]6NC(=O)[C@H]([C@@H](C)c7ccccc7)NC(=O)CNC(=O)[C@H](CO)NC(=O)C(C(O)[C@@H]7CN=C(N)N7[C@H]7O[C@H](CO)[C@@H](O)[C@H](O)[C@@H]7O)NC(=O)[C@H]([C@@H](O)[C@@H]7CN=C(N)N7)NC6=O)cc5)O[C@@H]4CO)[C@@H](O)[C@@H](O)[C@@H]3O)ccc2c1 (stereo partly drawn)
MIC (Enterococcus sp. [10]): 2 µg/mL (≈ 1.36 µM) | MIC (Streptococcus sp. [11]): ≤ 0.06 µg/mL | MIC (Staphylococcus aureus [9]): 1 µg/mL (≈ 0.682 µM)

C[C@@H](c1ccccc1)[C@@H]1NC(=O)CNC(=O)[C@H](CO)NC(=O)[C@@H]([C@@H](O)[C@@H]2CN=C(N)N2[C@H]2O[C@H](CO)[C@@H](O)[C@H](O)[C@@H]2O)NC(=O)[C@H]([C@@H](O)[C@@H]2CN=C(N)N2)NC(=O)[C@@H](Cc2ccc(O[C@H]3O[C@H](CO)[C@@H](O[C@H]4O[C@H](COCc5cccs5)[C@@H](O)[C@H](O)[C@@H]4O)[C@H](O)[C@@H]3O)cc2)NC1=O
MIC (Staphylococcus aureus [12]): 1 µg/mL (≈ 0.719 µM) | MIC (Enterococcus sp. [13]): 4 µg/mL (≈ 2.87 µM) | MIC (Streptococcus sp. [14]): 0.5 µg/mL (≈ 0.359 µM)

CCN1CCN(C(=O)N[C@@H](C(=O)N[C@@H]2C(=O)N3[C@@H]2SC(C)(C)[C@@H]3C(=O)O)c2ccccc2)C(=O)C1=O [PIPERACILLIN]
MIC (Staphylococcus aureus [15]): 0.5 µg/mL (≈ 0.966 µM) | MIC (Streptococcus sp. [16]): ≤ 0.06 µg/mL | MIC (Enterococcus sp. [17]): 0.25 µg/mL (≈ 0.483 µM)

CN[C@H](CC(C)C)C(=O)N[C@H]1C(=O)N[C@@H](CC(N)=O)C(=O)N[C@H]2C(=O)N[C@H]3C(=O)N[C@H](C(=O)N[C@H](C(=O)O)c4cc(O)cc(O)c4-c4cc3ccc4O)[C@H](O)c3ccc(c(Cl)c3)Oc3cc2cc(c3O[C@@H]2O[C@H](CO)[C@@H](O)[C@H](O)[C@H]2O[C@H]2C[C@](C)(N)[C@H](O)[C@H](C)O2)Oc2ccc(cc2Cl)[C@H]1O [VANCOMYCIN]
MIC (Enterococcus sp. [18]): 0.5 µg/mL (≈ 0.345 µM) | MIC (Streptococcus sp. [19]): 0.12 µg/mL (≈ 0.0828 µM)
